From patent US20230139944A1, “TARGETING ALPHA3BETA1 INTEGRIN FOR TREATMENT OF CANCER AND OTHER DISEASES” (Board of Regents, The University of Texas System, priority 2019, published 2023)

How the values were obtained:
[1] = test system: activation of FAK, AKT, and ERK in KPPC; Col1^pdxKO cancer cells; assay: Col1 homotrimer-induced pro-survival signaling examined by Western blotting; assay type: cell-based, mouse; conditions: VS-4718 1 μM, 16 hours, col1 homotrimers 50 μg/mL
Method: FIGS. 1A-1D. Type I collagen homotrimers induce pro-survival signaling through α3β1 integrin. KPPC; Col1^pdxKO cancer cells were transfected with siRNAs of DDR1 (A,B), integrin β1 (C), or integrin α3 (D). Cells were then incubated with DMEM medium with 1% FBS for 6 hours before the treatment with col1 homotrimers or heterotrimers (50 μg/mL) for 16 hours. Cells were harvested, lysed, and examined for indicated proteins by Western blotting.
(§1) FIGS. 2A-2H. Type I collagen homotrimers induce persistent proliferation signals via integrins. (A,B) KPPC; Col1^pdxKO cancer cells were transfected with siRNAs of integrins β1 (A), α1, α2, or α3 (B). Cells were then incubated with DMEM medium with 1% FBS for 6 hours before the treatment with col1 homotrimers or heterotrimers (50 μg/mL) for 16 hours. Cells were harvested, lysed, and examined by Western blotting. (C) Expression levels of selected integrin subunits in KPPC; Col1^pdxKO cancer cells. (D) Expression levels of selected integrin subunits human PDAC cell lines (Panc1, BxPC3, MiaPaca2, PSN1, HPAC, CAPAN1) based on RNA-seq data from the Broad Institute Cancer Cell Line Encyclopedia (CCLE) database. RMA (Robust Multi-array Average algorithm) normalization was used and data are the log 2 gene expression signal. […] Percent area of ADM and PanIN lesions was quantified. * P<0.05. […]

FAK and PYK2 = assay: Col1 homotrimer-induced signaling with FAK inhibitor, Western blotting; assay type: cell-based, mouse; conditions: VS-4718 1 μM, 16 hours, KPPC; Col1^pdxKO cancer cells, col1 homotrimers 50 μg/mL
[2] = test system: KPPC mice (ADM and PanIN lesions); assay: FAK inhibitor (FAKi) treatment in vivo, H&E-stained pancreas sections; parameters: species or system mouse; conditions: oral gavage 50 mg/kg twice per day for 7 days
Method: as §1, with “signal. (E) Expression profile of integrin α3 (Itga3) among various cell clusters from KPPC tumors, as shown in t-SNE plot using the single cell RNA sequencing analysis. (F) Representative images of integrin α3 IHC staining on KPPC tumor sections. Scale bar: 100 μm. (G) KPPC; Col1^pdxKO cancer cells growing in 6-well plates were cultured with regular medium (DMEM with 10% FBS) to reach 60% confluence.” for “signal.”

For `CNC(=O)c1ccccc1Nc1cc(Nc2ccc(N3CCOCC3)cc2OC)ncc1C(F)(F)F` [VS-4718], the “col1 homotrimer induced activation of FAK, AKT, and ERK” value [1] was “abrogated”, the “inhibition of FAK and PYK2” value (FAK and PYK2) was “inhibited FAK and PYK2” and the “early PanIN progression (percent area of ADM and PanIN lesions)” value [2] was “inhibited early PanIN progression”.
